Data reported in patent publication US4546098A, “Estrogen synthesis inhibitors” (The Rockefeller University, priority 1984, dated 1985).

target: T1, aromatase (Homo sapiens, UniProt P11511); assay: Inhibition of formic acid formation from [19,19,19-3H]androst-4-ene-3,17-dione by placental microsomes; assay type: biochemical; conditions: placental microsomes 1 mg/ml (5 ml), pH 7.2, 37° C., 30 minutes; inhibitor 4 n mole, androstenedione 4 n mole; NADPH
T1 construct: incubated with 5 ml of a placental microsomes; from tissue; host or cells: placental microsomes
T1 sequence (P11511 1-503): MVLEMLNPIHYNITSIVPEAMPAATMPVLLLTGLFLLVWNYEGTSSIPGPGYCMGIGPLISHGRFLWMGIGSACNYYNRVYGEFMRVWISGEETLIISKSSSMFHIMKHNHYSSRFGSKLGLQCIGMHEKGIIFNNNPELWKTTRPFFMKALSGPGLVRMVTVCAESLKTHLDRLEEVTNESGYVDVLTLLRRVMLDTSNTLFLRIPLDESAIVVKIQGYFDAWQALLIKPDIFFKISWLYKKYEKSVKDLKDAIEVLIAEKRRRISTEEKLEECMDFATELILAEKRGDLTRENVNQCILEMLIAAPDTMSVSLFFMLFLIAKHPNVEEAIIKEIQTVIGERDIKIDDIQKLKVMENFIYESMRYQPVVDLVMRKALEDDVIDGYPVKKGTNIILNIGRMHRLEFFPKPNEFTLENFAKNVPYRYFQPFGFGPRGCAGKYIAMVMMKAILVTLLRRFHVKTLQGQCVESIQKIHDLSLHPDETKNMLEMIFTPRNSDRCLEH
Description: A mixture of [19,19,19-^3 H]androst-4-ene-3,17-dione diluted with cold androstenedione (2.8×10^6 dpm, 4 n mole) and an inhibitor (4 n mole) in ethanol (50 μl) was incubated with 5 ml of a placental microsomes (1 mg/ml of 0.05M tris-HCl, pH 7.2) in the presence of NADPH (5 mg), glucose-6-phosphate (2.5 mg), and glucose-6-phosphate dehydrogenase (3.1 units). The incubations were carried out at 37° C. for 30 minutes in air. A control incubation was carried out as above except that the inhibitor was excluded. The incubation mixture (1 ml) was mixed with 1M phosphoric acid (1 ml), flash frozen and lyophilized. Radioactivity in 0.5 ml of the distilled component was measured (A). And 1.2 ml of the distilled component was mixed with 0.3 ml of 1N sodium hydroxide, flash frozen, and lyophilized. Radioactivity in 0.5 ml of the distilled water was measured (B).

SMILES	% Inhibition of formic acid formation [%]
C=C1C=C2CC[C@@H]3[C@H](CC[C@]4(C)[C@@H](O)CC[C@@H]34)[C@@]2(CO)CC1 [Cmpd 5, 3-methylene-androst-4-ene-17β,19-diol]	55
C=C1C=C2CC[C@H]3[C@@H]4CC[C@H](O)[C@@]4(C)CC[C@@H]3[C@@]2(C)CC1 [Cmpd. 1, 3-methylene-androst-4-ene-17β-ol]	43
C=C1C=C2CC[C@@H]3[C@H](CC[C@]4(C)C(=O)CC[C@@H]34)[C@@]2(C)CC1 [Cmpd. 3, 3-methylene-androst-4-ene-17-one]	86
C=C1C=C2CC[C@@H]3[C@H](CC[C@]4(C)C(=O)CC[C@@H]34)[C@@]2(CO)CC1 [Cmpd. 9, 3-methylene-androst-4-ene-19-ol-17-one]	90
C=C1C=C2CC[C@@H]3[C@H](CC[C@]4(C)C(=O)CC[C@@H]34)[C@@]2(C=O)CC1 [Cmpd. 53, 3-Methylene-androst-4-ene-17,19-dione]	70
